Legend:
[1] = tested on: THP1 cells; test: Lipopolysaccharide-activated THP1 cell TNF production assay; format: cell-based, human; details: Homo sapiens, THP-1; LPS-induced TNF-α production in THP1 cells
Method: Lipopolysaccharide-Activated THP1 Cell TNF Production Assay
THP1 cells are resuspended in fresh THP1 media (RPMI 1640, 10% heat-inactivated FBS, 1×PGS, 1×NEAA, plus 30 μM βME) at a concentration of 1E6/mL. One hundred microliters of cells per well are plated in a polystyrene 96-well tissue culture. One microgram per mL of bacterial LPS is prepared in THP1 media and is transferred to the wells. Test compounds are dissolved in 100% DMSO and are serially diluted 3-fold in a polypropylene 96-well microtiter plate (drug plate). HI control and LO control wells contain only DMSO. One microliter of test compound from the drug plate followed by 10 μL of LPS are transferred to the cell plate. The treated cells are induced to synthesize and secrete TNF-α at 37° C. for 3 h. Forty microliters of conditioned media are transferred to a 96-well polypropylene plate containing 110 μL of ECL buffer (50 mM Tris-HCl pH 8.0, 100 mM NaCl, 0.05% Tween 20, 0.05% NaN3 and 1% FBS) supplemented with 0.44 nM MAB610 monoclonal Ab (R&D Systems), 0.34 nM ruthenylated AF210NA polyclonal Ab (R&D Systems) and 44 μg/mL sheep anti-mouse M280 Dynabeads (Dynal). After a 2 h incubation at room temperature with shaking, the reaction is read on the ECL M8 Instrument (IGEN Inc.). A low voltage is applied to the ruthenylated TNF-α immune complexes, which in the presence of TPA (the active component in Origlo), results in a cyclical redox reaction generating light at […]. The amount of secreted TNF-α in the presence of compound compared with that in the presence of DMSO vehicle alone (HI control) is calculated using the formula: % control (POC)=(cpd−average LO)/(average HI−average LO)*100. Data (consisting of POC and inhibitor concentration in μM) is fitted to a 4-parameter equation (y=A+((B−A)/(1+((x/C)^D))), where A is the minimum y (POC) value, B is the maximum y (POC), C is the x (cpd concentration) at the point of inflection and D is the slope factor) using a Levenburg-Marquardt non-linear regression algorithm.

[2] = molecular target: p38α (Homo sapiens, UniProt Q16539); test: p38 in-vitro HTRF enzyme assay; format: biochemical; details: IC50 value ranges
Method: p38 In-Vitro HTRF Enzyme Assay
The compounds of the invention can be tested for their respective affinities for the p38 protein using a conventional p38 in-vitro enzyme activity assay. For example, a P38-alpha HTRF assay may be used to measure the protein's in-vitro phosphorylation activity, and the data analyzed using time resolved fluorimetry techniques (FRET). A p38 HTRF assay is as follows. The kinase reaction buffer for p38α, p38β, p38δ and p38γ HTRF assays consists of 50 mM Tris-pH 7.5, 5 mM MgCl2, 0.1 mg/mL BSA, 100 μM Na3VO4 and 0.5 mM DTT. The HTRF detection buffer contains 100 mM HEPES-pH 7.5, 100 mM NaCl, 0.1% BSA, 0.05% Tween-20, and 10 mM EDTA. Each compound was dissolved in 100% DMSO and serially diluted (3 fold, 10 point) in a polypropylene 96-well microtiter plate (drug plate). The final starting concentration of the compound in the p38α and p38β enzymatic assays was about 1 μM. The final starting concentration of each compound in the p38δ and p38γ enzymatic assays was about 10 μM. The p38α, p38β, p38δ and p38γ kinase reactions were carried out in a polypropylene 96-well black round bottom assay plate in total volume of 30 μL kinase reaction buffer. Appropriate concentration of purified and activated enzyme (recombinant human) was mixed with indicated concentration of ATP and 100 nM GST-ATF2-Avitag, in the presence or absence (HI control) of each compound. In the absence of enzyme, the background was measured as LO control. HI controls and LO controls contained only DMSO. The reaction was allowed to incubate for 1 hour at RT. […] After 60 minutes incubation at room temperature, the assay plate was read in a Discovery Plate Reader. The wells were excited with coherent 320 nm light and the ratio of delayed ([…] post excitation) emissions at […] (native europium fluorescence) and 665 nm (europium fluorescence transferred to allophycocyanin—an index of substrate phosphorylation) was determined (Park et al, 1999). The resulting data was analyzed by taking the proportion of substrate phosphorylated in the kinase reaction in the presence of each individual compound and comparing it with that phosphorylated in the presence of DMSO vehicle alone (HI control). The data was calculated using the formula: % control (POC)=(compound−average LO)/(average HI−average LO)*100. Data (consisting of POC and inhibitor concentration in μM) was fitted to a 4-parameter equation (y=A+((B−A)/(1+((x/C)^D))), where A is the minimum y (POC) value, B is the maximum y (POC), C is the x (compound concentration) at the point of inflection and D is the slope factor, using a Levenburg-Marquardt non-linear regression algorithm. The inhibition constant (Ki) of the inhibitor was estimated from the IC50 (compound concentration at the point of inflection C) using the Cheng-Prussof equation: Ki=IC50/(1+S/Km), where S is the ATP substrate concentration, and Km is the Michaelis constant for ATP as determined experimentally. All results were expressed as the mean±the standard error of the mean. Data acquisition and non-linear regression algorithms were performed using Activity Base v5.2 and XLfit software v4.1 respectively. Additional assay information may be obtained in Park Y W, Cummings R T, Wu L, et al. Homogeneous Proximity Tyrosine Kinase Assays Scintillation Proximity Assay versus Homogeneous Time-Resolved Fluorescence. Analytical Biochemistry. 1999; 269: 94-104.

[3] = tested on: monocytes; test: Lipopolysaccharide-activated monocyte TNF production assay (LPS induced TNF release); format: cell-based, human; details: Homo sapiens, Monocyte; LPS induced TNF release from monocytes; read-out: LPS induced TNFa
Method: Lipopolysaccharide-Activated Monocyte TNF Production Assay
Test compounds were evaluated in vitro for the ability to inhibit the production of TNF by monocytes activated with bacterial lipopolysaccharide (LPS). Fresh residual source leukocytes (a byproduct of plateletpheresis) were obtained from a local blood bank, and peripheral blood mononuclear cells (PBMCs) were isolated by density gradient centrifugation on Ficol-Paque Plus (Pharmacia). PBMCs were suspended at 2×10^6/mL in DMEM supplemented to contain 2% FCS, 10 mM, 0.3 mg/mL […], 100 U/mL penicillin G and […] streptomycin sulfate (complete media). Cells were plated into Falcon flat bottom, 96 well culture plates (200 μL/well) and cultured overnight at 37° C. and 6% CO2. Non-adherent cells were removed by washing with 200 μl/well of fresh medium. Wells containing adherent cells (˜70% monocytes) were replenished with 100 μL of fresh medium.
Preparation of Test Compound Stock Solutions
Test compounds were dissolved in […]. Compound stock solutions were prepared to an initial concentration of […]. Stocks were diluted initially to […] in complete media. Nine two-fold serial dilutions of each compound were then prepared in complete medium.
Treatment of Cells with Test Compounds and Activation of TNF Production with Lipopolysaccharide
One hundred microliters of each test compound dilution were added to microtiter wells containing adherent monocytes and 100 μL complete medium. Monocytes were cultured with test compounds for 60 min at which time 25 μL of complete medium containing 30 ng/mL lipopolysaccharide from E. coli K532 were added to each well. Cells were cultured an additional 4 hrs. Culture supernatants were then removed and TNF presence in the supernatants was quantified using an ELISA.
Flat bottom, 96 well Corning High Binding ELISA plates were coated overnight (4° C.) with 150 μL/well of 3 μg/mL murine anti-human TNF-α MAb (R&D Systems #MAB210). Wells were then blocked for 1 h at room temperature with 200 μL/well of CaCl2-free ELISA buffer supplemented to contain 20 mg/mL BSA (standard ELISA buffer: […], 150 mM NaCl, 2 mM CaCl2, 0.15 mM thimerosal, pH 7.4). Plates were washed and replenished with 100 μL of test supernatants (diluted 1:3) or standards. Standards consisted of eleven 1.5-fold serial dilutions from a stock of 1 ng/mL recombinant human TNF (R&D Systems). Plates were incubated at room temperature for 1 h on orbital shaker (300 rpm), washed and replenished with 100 μL/well of 0.5 μg/mL goat anti-human TNF-α (R&D systems #AB-210-NA) biotinylated at a 4:1 ratio. Plates were incubated for 40 min, washed and replenished with 100 μL/well of alkaline phosphatase-conjugated streptavidin (Jackson ImmunoResearch #016-050-084) at 0.02 μg/mL. Plates were incubated 30 min, washed and replenished with 200 μL/well of 1 mg/mL of p-nitrophenyl phosphate.
Standard curve data were fit to a second order polynomial and unknown TNF-α concentrations determined from their OD by solving this equation for concentration. TNF concentrations were then plotted vs. test compound concentration using a second order polynomial. This equation was then used to calculate the concentration of test compounds causing a 50% reduction in TNF production.

Chain of p38α (Q16539 whole entry): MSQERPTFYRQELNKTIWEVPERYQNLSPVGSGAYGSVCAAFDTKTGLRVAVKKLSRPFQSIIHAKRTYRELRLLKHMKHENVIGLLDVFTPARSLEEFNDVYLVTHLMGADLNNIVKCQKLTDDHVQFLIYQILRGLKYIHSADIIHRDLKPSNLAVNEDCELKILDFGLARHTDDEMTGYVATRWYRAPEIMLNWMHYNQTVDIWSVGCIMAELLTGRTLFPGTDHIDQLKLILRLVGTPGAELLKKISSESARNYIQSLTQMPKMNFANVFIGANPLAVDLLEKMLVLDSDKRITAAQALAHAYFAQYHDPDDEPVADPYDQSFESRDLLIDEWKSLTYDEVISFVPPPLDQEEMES

Row | Compound | IC50 [1] | IC50 [2] | IC50 [3]
1 | Cc1ccc(C(=O)NC2CC2)cc1-c1ccn2c(-c3ccc(F)cc3C)nnc2c1 [Example 15, N-cyclopropyl-3-(3-(4-fluoro-2-methylphenyl)[1,2,4]triazolo[4,3-a]pyridin-7-yl)-4-methylbenzamide] | < 0.025 µM | < 0.025 µM | 0.025 to 0.1 µM
2 | Cc1c(F)cc(C(=O)Nc2ccnn2C)cc1-c1ccn2c(-c3c(F)cccc3Cl)nnc2c1 [Example 61, 3-(3-(2-chloro-6-fluorophenyl)[1,2,4]triazolo[4,3-a]pyridin-7-yl)-5-fluoro-4-methyl-N-(1-methyl-1H-pyrazol-5-yl)benzamide] | 0.025 to 0.1 µM | 0.025 to 0.1 µM | 0.1 to 0.25 µM
3 | Cc1ccc(C(=O)NC2CC2)cc1-c1ccn2c(N)nnc2c1 [Example 1, 3-(3-amino[1,2,4]triazolo[4,3-a]pyridin-7-yl)-N-cyclopropyl-4-methylbenzamide] | 1 to 5 µM | 0.25 to 1 µM | 1 to 5 µM
4 | Cc1ccc(C(=O)Nc2ccnn2C)cc1-c1ccn2c(-c3ccc(F)cc3Cl)nnc2c1 [Example 45, 3-(3-(2-chloro-4-fluorophenyl)[1,2,4]triazolo[4,3-a]pyridin-7-yl)-4-methyl-N-(1-methyl-1H-pyrazol-5-yl)benzamide] | < 0.025 µM | < 0.025 µM | 0.1 to 0.25 µM
5 | Cc1ccc(C(=O)NC2CC2)cc1-c1ccn2c(-c3cc(F)ccc3Cl)nnc2c1 [Example 46, 3-(3-(2-chloro-5-fluorophenyl)[1,2,4]triazolo[4,3-a]pyridin-7-yl)-N-cyclopropyl-4-methylbenzamide] | < 0.025 µM | < 0.025 µM | 0.025 to 0.1 µM
6 | Cc1c(F)cc(C(=O)NC2CC2)cc1-c1ccn2c(-c3c(F)cccc3Cl)nnc2c1 [Example 56, 3-(3-(2-chloro-6-fluorophenyl)[1,2,4]triazolo[4,3-a]pyridin-7-yl)-N-cyclopropyl-5-fluoro-4-methylbenzamide] | < 0.025 µM | < 0.025 µM | < 0.025 µM
7 | Cc1ccc(C(=O)NC2CC2)cc1-c1ccn2c(-c3ccccc3C)nnc2c1 [Example 32, N-cyclopropyl-4-methyl-3-(3-(2-methylphenyl)[1,2,4]triazolo[4,3-a]pyridin-7-yl)benzamide] | 0.025 to 0.1 µM | < 0.025 µM | 0.1 to 0.25 µM

More lines, now with the values ahead:

Row | IC50 [1] | IC50 [2] | IC50 [3] | Compound
8 | < 0.025 µM | < 0.025 µM | 0.025 to 0.1 µM | Cc1ccc(C(=O)NC2CC2)cc1-c1ccn2c(-c3c(F)cccc3C(F)(F)F)nnc2c1 [Example 69, N-cyclopropyl-3-(3-(2-fluoro-6-(trifluoromethyl)phenyl)[1,2,4]triazolo[4,3-a]pyridin-7-yl)-4-methylbenzamide]
9 | 0.025 to 0.1 µM | < 0.025 µM | 0.1 to 0.25 µM | Cc1ccc(C(=O)NC2CC2)cc1-c1ccn2c(C3CCOCC3)nnc2c1 [Example 97, N-cyclopropyl-4-methyl-3-(3-(tetrahydro-2H-pyran-4-yl)[1,2,4]triazolo[4,3-a]pyridin-7-yl)benzamide]
10 | < 0.025 µM | < 0.025 µM | < 0.025 µM | Cc1ccc(C(=O)Nc2ccon2)cc1-c1ccn2c(-c3c(F)cccc3F)nnc2c1 [Example 106, 3-(3-(2,6-difluorophenyl)[1,2,4]triazolo[4,3-a]pyridin-7-yl)-N-3-isoxazolyl-4-methylbenzamide]
11 | 0.25 to 1 µM | < 0.025 µM | 0.1 to 0.25 µM | Cc1ccc(C(=O)NC2CC2)cc1-c1ccn2c(Nc3ccccc3)nnc2c1 [Example 66, N-cyclopropyl-4-methyl-3-(3-(phenylamino)[1,2,4]triazolo[4,3-a]pyridin-7-yl)benzamide]
12 | 0.1 to 0.25 µM | < 0.025 µM | 0.25 to 1 µM | Cc1ccc(C(=O)NC2CC2)cc1-c1ccn2c(Cc3ccccc3)nnc2c1 [Example 89, N-cyclopropyl-4-methyl-3-(3-(phenylmethyl)[1,2,4]triazolo[4,3-a]pyridin-7-yl)benzamide]
